According to patent US12178846B2, “Methods of using gap junctions as therapeutic targets for the treatment of degenerative disorders of the retina” (The Research Foundation for The State University of New York, priority 2014, dated 2024):
Entries after “also recorded” stand apart in the source; their conditions may differ.

System: ischemic retina
Test: Transient in vivo retinal ischemia-reperfusion (raised IOP), 7 days reperfusion
Set-up: species or system mouse
Protocol: Various methods were employed to produce cell death. (1) Single cell apoptosis: CytC was injected into individual RGCs or Müller cells for 15 minutes after which retinas were incubated for 4 hours in oxygenated Ames medium before fixation. After streptavidin histology, apoptotic cells were detected with an anti-active caspase 3 antibody or with Terminal deoxynucleotidyl transferase dUTP nick end labeling (TUNEL) staining. (2) Excitotoxicity: To assess the contribution of GJs to cell death within populations of RGCs and amacrine cells we conducted parallel experiments in which retinas were preincubated for 20 minutes in normal Ames medium or in one containing the GJ blockers meclofenamic acid (MFA; 50 μM) or 18-beta-glycyrrhetinic acid (18Beta-GA; 25 μM). Both control and drug-treated retinas were then exposed for 1 hour to NMDA (100-300 μM) to induce excitotoxicity followed by 4 hours in the control Ames solution. (3) Retinal ischemia: Transient in vivo retinal ischemia was induced by introducing into the anterior chamber a 33-gauge needle attached to a saline-filled reservoir (0.9% sodium chloride) that was raised above the animal so as to increase intraocular pressure (IOP) to a level […]. MFA (2 μl, 500 μM) was administered intravitreally either 30 minutes before or 3 and 24 hours following the ischemic insult. The opposite eye was cannulated, but maintained at normal IOP to serve as a normotensive control. After 40-50 minutes, the needle was withdrawn and ischemia was evidenced by corneal whitening. After 7 days of reperfusion, mice were sacrificed and eyes were processed to assess retinal damage and neuronal death. We also employed oxygen-glucose deprivation (OGD) to induce in vitro ischemia, in which retina-eyecups or isolated retinal whole-mounts were exposed continuously to either a control, oxygenated Ringer solution, or one that was glucose-free and deoxygenated by bubbling extensively with 95% N2/5% CO2 at 34° C. Following 60 minutes in the OGD environment, retinas were transferred to a control, oxygenated Ames medium for 4 hours before processing to evaluate cell death. Apoptotic and necrotic cell death were assessed by cell counts following: (1) staining with Live/Death Viability Assay (calcein AM/ethidium homodimer (EthD) (Invitrogen); (2) TUNEL, or, (3) labeling for activated caspase 3. For population studies, dead cells were counted manually within 500×500 μm areas (5 areas per retina) from micrographs of whole-mounts using images acquired by confocal microscope. Nuclear cell counts were made per unit length (500 μm) of frozen retinal cross-sections labeled with propidium iodide (2 μg/ml). In some experiments, cells counts were limited to retrograde labeled RGCs in the GCL or certain subpopulation of amacrine cells, identified by specific markers, such as calretinin (CR), calbindin (CB) and choline acetyltransferase (ChAT) in the INL. Fluorescence intensity measures were made of glial fibrillary acidic protein (GFAP), which is overexpressed in Müller glial cells following retinal injury. Expression of GFAP and connexins were quantified by analysis of confocal images with Metavue software (Molecular Devices). Average pixel fluorescence intensities were measured by using uniform rectangular areas (3-5 per image) extending either from the GCL to the outer limiting membrane for GFAP or through the IPL for connexins. The intensity values were then averaged for at least 5 images from 3-5 independent experiments and data were normalized to controls.

[1] = MFA 500 μM, 2 μl intravitreal 30 min before ischemic insult
[2] = MFA intravitreal 3 and 24 hours after transient ischemia, measured one week after insult, p<0.01
[3] = MFA, transient ischemia, p<0.001

Cc1ccc(Cl)c(Nc2ccccc2C(=O)O)c1Cl [MFA, meclofenamic acid]
cell counts in the GCL [1]: preserved | retinal thickness / retinal morphology [1]: preserved; also recorded: prevented changes | GFAP expression [2]: maintenance of normal levels | cell counts in the GCL [2]: maintenance of normal levels; also recorded: significantly limit | retinal thickness [2]: maintenance of normal levels | number of ChAT-positive ACs in the INL (MFA, ischemic retinas, p>0.1): no effect | number of CB-immunoreactive ACs in the INL [3]: prevented the loss; also recorded: largely prevented a reduction | number of CR-immunoreactive ACs in the INL [3]: prevented the loss
